Source: PMC3849095, “Trans-chalcone and quercetin down-regulate fatty acid synthase gene expression and reduce ergosterol content in the human pathogenic dermatophyte Trichophyton rubrum” (BMC Complementary and Alternative Medicine, 2013)
Where two headings read alike, the source gives them in different places.

Biological target: T1, Fatty acid synthase (FAS) (Saccharomyces cerevisiae, UniProt P07149+P19097)
T1 construct: gene FAS1; with FAS2 (alpha subunit of the yeast FAS complex)
Assay: FAS activity (absorbance at […] nm, malonyl CoA/acetyl CoA/NADPH) in ammonium sulfate-precipitated yeast protein extract
Assay type: biochemical

T1 sequence (P19097 whole entry): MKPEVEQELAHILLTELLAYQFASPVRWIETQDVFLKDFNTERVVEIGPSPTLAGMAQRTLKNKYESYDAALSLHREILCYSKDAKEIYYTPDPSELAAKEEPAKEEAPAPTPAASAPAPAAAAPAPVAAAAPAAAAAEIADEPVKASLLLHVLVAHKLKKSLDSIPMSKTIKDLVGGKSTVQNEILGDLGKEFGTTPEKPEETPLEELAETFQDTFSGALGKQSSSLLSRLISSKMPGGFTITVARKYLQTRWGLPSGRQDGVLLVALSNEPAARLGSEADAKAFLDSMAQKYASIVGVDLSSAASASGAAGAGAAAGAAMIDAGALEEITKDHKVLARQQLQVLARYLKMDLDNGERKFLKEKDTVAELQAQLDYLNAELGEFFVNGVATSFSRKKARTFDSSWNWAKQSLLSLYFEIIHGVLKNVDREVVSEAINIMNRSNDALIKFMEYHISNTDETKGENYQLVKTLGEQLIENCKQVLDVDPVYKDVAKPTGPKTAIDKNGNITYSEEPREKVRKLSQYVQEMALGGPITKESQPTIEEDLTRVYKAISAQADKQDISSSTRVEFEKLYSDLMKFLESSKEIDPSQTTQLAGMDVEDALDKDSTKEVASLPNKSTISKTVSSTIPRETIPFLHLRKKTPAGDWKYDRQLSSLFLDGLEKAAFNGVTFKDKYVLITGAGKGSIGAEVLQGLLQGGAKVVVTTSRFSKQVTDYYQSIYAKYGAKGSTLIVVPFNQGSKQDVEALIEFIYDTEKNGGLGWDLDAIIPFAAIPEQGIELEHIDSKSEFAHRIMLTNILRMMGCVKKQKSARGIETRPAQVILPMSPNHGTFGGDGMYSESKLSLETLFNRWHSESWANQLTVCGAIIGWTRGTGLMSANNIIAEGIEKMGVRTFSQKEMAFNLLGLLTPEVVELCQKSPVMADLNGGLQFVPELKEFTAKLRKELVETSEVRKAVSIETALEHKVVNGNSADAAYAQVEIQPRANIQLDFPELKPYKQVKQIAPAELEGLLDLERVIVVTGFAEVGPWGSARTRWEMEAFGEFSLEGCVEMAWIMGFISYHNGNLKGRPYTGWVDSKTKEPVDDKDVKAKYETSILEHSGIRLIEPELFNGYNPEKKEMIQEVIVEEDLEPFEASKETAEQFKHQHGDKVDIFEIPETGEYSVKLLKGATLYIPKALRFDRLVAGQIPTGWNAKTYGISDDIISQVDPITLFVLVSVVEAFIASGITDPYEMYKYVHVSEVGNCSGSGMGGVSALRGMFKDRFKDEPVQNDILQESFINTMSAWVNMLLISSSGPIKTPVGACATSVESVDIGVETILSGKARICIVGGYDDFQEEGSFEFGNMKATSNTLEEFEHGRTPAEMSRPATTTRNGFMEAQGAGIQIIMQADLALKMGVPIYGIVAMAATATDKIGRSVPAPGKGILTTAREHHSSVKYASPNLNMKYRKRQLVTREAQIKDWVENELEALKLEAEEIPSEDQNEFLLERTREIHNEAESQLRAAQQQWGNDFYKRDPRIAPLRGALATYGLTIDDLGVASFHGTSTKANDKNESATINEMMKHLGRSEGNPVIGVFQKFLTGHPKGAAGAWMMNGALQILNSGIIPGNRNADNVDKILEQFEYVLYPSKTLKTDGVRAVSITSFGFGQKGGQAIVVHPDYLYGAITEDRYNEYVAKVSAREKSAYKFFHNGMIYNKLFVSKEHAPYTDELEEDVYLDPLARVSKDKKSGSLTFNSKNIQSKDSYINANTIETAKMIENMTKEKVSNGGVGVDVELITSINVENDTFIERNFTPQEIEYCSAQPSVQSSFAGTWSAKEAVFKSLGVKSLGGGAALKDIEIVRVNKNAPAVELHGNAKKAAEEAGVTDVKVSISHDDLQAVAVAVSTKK
T1 sequence (P07149 whole entry): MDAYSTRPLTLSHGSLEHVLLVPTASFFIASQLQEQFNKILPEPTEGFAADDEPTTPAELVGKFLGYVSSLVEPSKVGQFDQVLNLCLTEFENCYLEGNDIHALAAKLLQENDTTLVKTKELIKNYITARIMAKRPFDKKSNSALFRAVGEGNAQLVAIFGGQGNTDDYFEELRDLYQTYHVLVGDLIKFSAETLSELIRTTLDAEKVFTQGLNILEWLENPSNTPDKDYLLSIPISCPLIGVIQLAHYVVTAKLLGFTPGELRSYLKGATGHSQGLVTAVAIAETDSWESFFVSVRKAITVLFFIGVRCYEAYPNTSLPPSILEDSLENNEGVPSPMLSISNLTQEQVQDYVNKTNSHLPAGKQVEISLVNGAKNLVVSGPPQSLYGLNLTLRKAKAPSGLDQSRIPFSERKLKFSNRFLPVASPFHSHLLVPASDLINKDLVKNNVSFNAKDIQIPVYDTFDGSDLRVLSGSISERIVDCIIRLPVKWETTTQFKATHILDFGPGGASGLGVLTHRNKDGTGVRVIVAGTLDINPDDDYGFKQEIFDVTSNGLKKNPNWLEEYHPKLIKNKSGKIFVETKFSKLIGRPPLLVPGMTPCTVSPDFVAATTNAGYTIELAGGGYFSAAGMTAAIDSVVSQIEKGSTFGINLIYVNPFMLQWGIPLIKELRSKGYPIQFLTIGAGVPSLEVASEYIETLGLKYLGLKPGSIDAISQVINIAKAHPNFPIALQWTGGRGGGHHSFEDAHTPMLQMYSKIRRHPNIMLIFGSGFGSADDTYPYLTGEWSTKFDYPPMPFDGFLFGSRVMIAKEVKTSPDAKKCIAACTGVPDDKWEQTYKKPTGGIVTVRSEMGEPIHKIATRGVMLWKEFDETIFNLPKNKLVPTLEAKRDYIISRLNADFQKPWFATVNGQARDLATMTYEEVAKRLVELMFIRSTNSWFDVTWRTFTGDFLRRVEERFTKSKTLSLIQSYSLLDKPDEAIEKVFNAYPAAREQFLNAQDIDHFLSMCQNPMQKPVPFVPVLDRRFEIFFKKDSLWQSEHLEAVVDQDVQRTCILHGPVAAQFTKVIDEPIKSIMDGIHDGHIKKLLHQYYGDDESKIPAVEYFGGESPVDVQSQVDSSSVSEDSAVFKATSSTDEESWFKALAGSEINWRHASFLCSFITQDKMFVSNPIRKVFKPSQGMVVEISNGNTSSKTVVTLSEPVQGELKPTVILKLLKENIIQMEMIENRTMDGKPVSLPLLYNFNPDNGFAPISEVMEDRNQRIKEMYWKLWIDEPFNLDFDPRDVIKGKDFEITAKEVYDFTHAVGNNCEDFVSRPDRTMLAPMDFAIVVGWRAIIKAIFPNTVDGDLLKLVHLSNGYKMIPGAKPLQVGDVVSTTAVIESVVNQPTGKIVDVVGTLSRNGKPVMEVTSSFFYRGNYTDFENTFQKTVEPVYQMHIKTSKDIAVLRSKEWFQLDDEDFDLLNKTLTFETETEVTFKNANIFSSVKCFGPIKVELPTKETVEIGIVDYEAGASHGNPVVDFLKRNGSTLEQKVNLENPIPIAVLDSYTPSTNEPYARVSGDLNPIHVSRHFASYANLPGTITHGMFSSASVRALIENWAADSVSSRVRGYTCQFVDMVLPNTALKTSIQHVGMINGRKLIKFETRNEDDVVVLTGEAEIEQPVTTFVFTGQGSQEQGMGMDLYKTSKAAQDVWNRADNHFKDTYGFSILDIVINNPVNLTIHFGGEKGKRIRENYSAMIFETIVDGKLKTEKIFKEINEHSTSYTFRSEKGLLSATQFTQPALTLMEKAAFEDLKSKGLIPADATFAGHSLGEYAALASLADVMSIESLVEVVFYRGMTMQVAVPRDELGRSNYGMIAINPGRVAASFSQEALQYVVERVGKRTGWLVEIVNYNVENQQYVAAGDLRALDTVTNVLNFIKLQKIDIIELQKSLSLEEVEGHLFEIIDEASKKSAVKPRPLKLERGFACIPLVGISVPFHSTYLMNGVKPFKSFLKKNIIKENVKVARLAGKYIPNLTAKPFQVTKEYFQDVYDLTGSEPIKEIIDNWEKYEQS

SMILES | IC50 (read-out: IC50 (μg/mL) (converted)) | IC50 (read-out: IC50 (converted))
O=c1c(O)c(-c2ccc(O)c(O)c2)oc2cc(O)cc(O)c12 [QCT, Quercetin] | 56.6 µM | –
O=C(/C=C/c1ccccc1)c1ccccc1 [T-CHL, Trans-chalcone] | – | 328 µM
